{"source": "ChEMBL document CHEMBL1125669", "about": "“Synthesis of potential dual-acting radiation sensitizer antineoplastic agents: 2,2-dimethylphosphoraziridines containing 2-nitroimidazoles or other electron-affinic moieties” (1991)", "type_in_all_cases": "functional", "key": {"[1]": {"system": "Mus musculus", "assay": "In vivo antitumor activity against P-388 leukemia in CDF1 mice at 32 mg or 93 umol by ip administration expressed as median survival time of drug treated mice/median survival time of control mice x100"}, "[2]": {"system": "Mus musculus", "assay": "In vivo antitumor activity against P-388 leukemia in CDF1 mice at 128 mg or 373 umol by ip administration expressed as median survival time of drug treated mice/median survival time of control mice x100"}, "[3]": {"system": "Mus musculus", "assay": "In vivo antitumor activity against P-388 leukemia in CDF1 mice at 64 mg or 186 umol by ip administration expressed as average wt. change determined between day 0 and day 6 of experiment"}, "[4]": {"system": "Mus musculus", "assay": "In vivo antitumor activity against P-388 leukemia in CDF1 mice at 16 mg or 47 umol by ip administration expressed as median survival time of drug treated mice/median survival time of control mice x100"}, "[5]": {"system": "Mus musculus", "assay": "In vivo antitumor activity against P-388 leukemia in CDF1 mice at 8 mg or 23 umol by ip administration expressed as median survival time of drug treated mice/median survival time of control mice x100"}, "[6]": {"system": "Mus musculus", "assay": "In vivo antitumor activity against P-388 leukemia in CDF1 mice at 64 mg or 186 umol by ip administration expressed as median survival time of drug treated mice/median survival time of control mice x100"}, "[7]": {"system": "Mus musculus", "assay": "In vivo antitumor activity against P-388 leukemia in CDF1 mice at 32 mg or 93 umol by ip administration expressed as average wt. change determined between day 0 and day 6 of experiment"}, "[8]": {"system": "Mus musculus", "assay": "In vivo antitumor activity against P-388 leukemia in CDF1 mice at 16 mg or 47 umol by ip administration expressed as average wt. change determined between day 0 and day 6 of experiment"}, "[9]": {"system": "Mus musculus", "assay": "In vivo antitumor activity against P-388 leukemia in CDF1 mice at 256 mg or 746 umol by ip administration expressed as average wt. change determined between day 0 and day 6 of experiment"}, "[10]": {"system": "Mus musculus", "assay": "In vivo antitumor activity against P-388 leukemia in CDF1 mice at 8 mg or 23 umol by ip administration expressed as average wt. change determined between day 0 and day 6 of experiment"}, "[11]": {"system": "Mus musculus", "assay": "In vivo antitumor activity against P-388 leukemia in CDF1 mice at 128 mg or 373 umol by ip administration expressed as average wt. change determined between day 0 and day 6 of experiment"}, "[12]": {"system": "Mus musculus", "assay": "In vivo antitumor activity against P-388 leukemia in CDF1 mice at 256 mg or 746 umol by ip administration expressed as median survival time of drug treated mice/median survival time of control mice x100"}}, "data": [{"smiles": "CC1(C)CN1P(=O)(OCCn1ccnc1[N+](=O)[O-])N1CC1(C)C", "note": "(configuration not stated)", "values": [{"measurement": "T/C", "setting": "[1]", "value": 111, "unit": "%"}, {"measurement": "T/C", "setting": "[2]", "value": 189, "unit": "%"}, {"measurement": "Average weight change", "setting": "[3]", "value": -1.1, "unit": "g"}, {"measurement": "T/C", "setting": "[4]", "value": 122, "unit": "%"}, {"measurement": "T/C", "setting": "[5]", "value": 106, "unit": "%"}, {"measurement": "T/C", "setting": "[6]", "value": 150, "unit": "%"}, {"measurement": "Average weight change", "setting": "[7]", "value": -0.9, "unit": "g"}, {"measurement": "Average weight change", "setting": "[8]", "value": 0.1, "unit": "g"}, {"measurement": "Average weight change", "setting": "[9]", "value": -2.8, "unit": "g"}, {"measurement": "Average weight change", "setting": "[10]", "value": 0.2, "unit": "g"}, {"measurement": "Average weight change", "setting": "[11]", "value": -1.3, "unit": "g"}, {"measurement": "T/C", "setting": "[12]", "value": 228, "unit": "%"}]}]}
